Where a SMILES comes first, the peptide text is derived from it. Bridges are numbered along the chain shown (N, C = ends). [ ]: non-standard residue; d: D form. The star is where a group is joined. Val(Nα-amidino) = CC(C)[C@H](NC(=N)N)C(=O)*; Hyp = O=C(O)[C@@H]1C[C@@H](O)CN1; Pen = CC(C)(S)[C@H](N)C(=O)O; dDab = NCC[C@@H](N)C(=O)O; Orn = NCCC[C@H](N)C(=O)O; Dab = NCC[C@H](N)C(=O)O
Key:
Type in all cases: cell-based
[1] = tested on: Escherichia coli ATCC 25922; conditions: ATCC 25922
Summary of the method: (§1)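 CLSI broth microdilution, slightly modified: cation-adjusted Mueller-Hinton II broth with about 5×10^5 CFU/mL from a 0.5 McFarland suspension, and two-fold serial peptide dilutions with Polysorbate 80 at 0.002% final. MIC (μg/mL) was the lowest concentration with no visible growth after 18-20 hours at 35° C.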

[2] = tested on: Escherichia coli MCR-1 Af 45; conditions: MCR-1 Af 45
Summary of the method: as §1

[3] = tested on: Klebsiella pneumoniae SSI3010; conditions: SSI3010
Summary of the method: as §1

[4] = tested on: human red blood cells (hRBC); conditions: red cells of human, 1 h, 200 μg/mL
Summary of the method: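 Percent hemolysis derived from OD540 of supernatants relative to full lysis by 2.5% Triton X-100 (PBS baseline). Washed fresh human erythrocytes (20% v/v) were exposed to 200 μg/mL peptide for 1 h at 37 °C with shaking.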

SMILES | Escherichia coli ATCC 25922 MIC [1] | Escherichia coli MCR-1 Af45 MIC [2] | Klebsiella pneumoniae SSI3010 MIC [3] | Hemolysis at 0.2 g/L [4]
CC[C@H](C)[C@H](NC(=O)[C@@H]1C[C@@H](O)CN1C(=O)[C@@H](NC(=N)N)C(C)C)C(=O)N[C@@H]1C(=O)N[C@@H](Cc2ccc(O)cc2)C(=O)N[C@@H]([C@@H](C)O)C(=O)N[C@@H](CC(N)=O)C(=O)N[C@@H](CCCNC(=N)N)C(=O)N[C@@H](CCN)C(=O)N[C@@H]([C@@H](C)O)C(=O)N[C@H](CCN)C(=O)N[C@@H](CCCN)C(=O)N[C@@H](CCN)C(=O)N[C@@H](CCN)C(=O)N[C@H](C(=O)N[C@@H](Cc2ccc(O)cc2)C(=O)O)CSSC1(C)C [Example 124, Gua-Val-Hyp-Ile-Pen-Tyr-Thr-Asn-Arg-Dab-Thr-^DDab-Orn-Dab-Dab-Cys-Tyr] ({Val(Nα-amidino)}-[Hyp]I[Pen]YTNR[Dab]T[dDab][Orn][Dab][Dab]CY-OH; disulfide 3-14) | 0.03125 µg/mL | 0.03125 µg/mL | 0.125 µg/mL | <1%
CC[C@H](C)[C@H](NC(=O)[C@@H]1C[C@@H](O)CN1C(=O)[C@@H](NC(=N)N)C(C)C)C(=O)N[C@@H]1C(=O)N[C@@H](Cc2ccc(O)cc2)C(=O)N[C@@H](CO)C(=O)N[C@@H](CC(N)=O)C(=O)N[C@@H](CCCNC(=N)N)C(=O)N[C@@H](CCN)C(=O)N[C@@H]([C@@H](C)O)C(=O)N[C@H](CCN)C(=O)N[C@@H](CCN)C(=O)N[C@@H](CCN)C(=O)N[C@@H](CCN)C(=O)N[C@H](C(=O)N[C@@H](Cc2ccc(O)cc2)C(=O)O)CSSC1(C)C [Example 125, Gua-Val-Hyp-Ile-Pen-Tyr-Ser-Asn-Arg-Dab-Thr-^DDab-Dab-Dab-Dab-Cys-Tyr] ({Val(Nα-amidino)}-[Hyp]I[Pen]YSNR[Dab]T[dDab][Dab][Dab][Dab]CY-OH; disulfide 3-14) | 0.125 µg/mL | 0.03125 µg/mL | 0.125 µg/mL | <1%
CC[C@H](C)[C@H](NC(=O)[C@@H]1C[C@@H](O)CN1C(=O)[C@@H](NC(=N)N)C(C)C)C(=O)N[C@@H]1C(=O)N[C@@H](Cc2ccc(O)cc2)C(=O)N[C@@H](CO)C(=O)N[C@@H](CC(N)=O)C(=O)N[C@@H](CCCNC(=N)N)C(=O)N[C@@H](CCN)C(=O)N[C@@H]([C@@H](C)O)C(=O)N[C@H](CCN)C(=O)N[C@@H](CCCN)C(=O)N[C@@H](CCN)C(=O)N[C@@H](CCN)C(=O)N[C@H](C(=O)N[C@@H](Cc2ccc(O)cc2)C(=O)O)CSSC1(C)C [Example 126, Gua-Val-Hyp-Ile-Pen-Tyr-Ser-Asn-Arg-Dab-Thr-^DDab-Orn-Dab-Dab-Cys-Tyr] ({Val(Nα-amidino)}-[Hyp]I[Pen]YSNR[Dab]T[dDab][Orn][Dab][Dab]CY-OH; disulfide 3-14) | 0.125 µg/mL | 0.03125 µg/mL | 0.125 µg/mL | <1%
CC[C@H](C)[C@H](NC(=O)[C@@H]1C[C@@H](O)CN1C(=O)[C@@H](NC(=N)N)C(C)C)C(=O)N[C@@H]1C(=O)N[C@@H](Cc2ccc(O)cc2)C(=O)N[C@@H]([C@@H](C)O)C(=O)N[C@@H](CC(N)=O)C(=O)N[C@@H](CCCNC(=N)N)C(=O)N[C@@H](CCN)C(=O)N[C@@H]([C@@H](C)O)C(=O)N[C@H](CCN)C(=O)N[C@@H](CCN)C(=O)N[C@@H](CCN)C(=O)N[C@@H](CO)C(=O)N[C@H](C(=O)N[C@@H](Cc2ccc(O)cc2)C(=O)O)CSSC1(C)C [Example 127, Gua-Val-Hyp-Ile-Pen-Tyr-Thr-Asn-Arg-Dab-Thr-^DDab-Dab-Dab-Ser-Cys-Tyr] ({Val(Nα-amidino)}-[Hyp]I[Pen]YTNR[Dab]T[dDab][Dab][Dab]SCY-OH; disulfide 3-14) | 0.125 µg/mL | 0.0625 µg/mL | 0.25 µg/mL | <1%
CC[C@H](C)[C@H](NC(=O)[C@@H]1C[C@@H](O)CN1C(=O)[C@@H](NC(=N)N)C(C)C)C(=O)N[C@@H]1C(=O)N[C@@H](Cc2ccc(O)cc2)C(=O)N[C@@H]([C@@H](C)O)C(=O)N[C@@H](CC(N)=O)C(=O)N[C@@H](CCCNC(=N)N)C(=O)N[C@@H](CCN)C(=O)N[C@@H]([C@@H](C)O)C(=O)N[C@H](CCN)C(=O)N[C@@H](CCCN)C(=O)N[C@@H](CCN)C(=O)N[C@@H](CO)C(=O)N[C@H](C(=O)N[C@@H](Cc2ccc(O)cc2)C(=O)O)CSSC1(C)C [Example 128, Gua-Val-Hyp-Ile-Pen-Tyr-Thr-Asn-Arg-Dab-Thr-^DDab-Orn-Dab-Ser-Cys-Tyr] ({Val(Nα-amidino)}-[Hyp]I[Pen]YTNR[Dab]T[dDab][Orn][Dab]SCY-OH; disulfide 3-14) | 0.125 µg/mL | 0.125 µg/mL | 0.25 µg/mL | <1%
CC[C@H](C)[C@H](NC(=O)[C@@H]1C[C@@H](O)CN1C(=O)[C@@H](NC(=N)N)C(C)C)C(=O)N[C@@H]1C(=O)N[C@@H](Cc2ccc(O)cc2)C(=O)N[C@@H](CCN)C(=O)N[C@@H](CC(N)=O)C(=O)N[C@@H](CCCNC(=N)N)C(=O)N[C@@H](CCN)C(=O)N[C@@H]([C@@H](C)O)C(=O)N[C@H](CCN)C(=O)N[C@@H](CCN)C(=O)N[C@@H]([C@@H](C)O)C(=O)N[C@@H](CO)C(=O)N[C@H](C(=O)N[C@@H](Cc2ccc(O)cc2)C(=O)O)CSSC1(C)C [Example 129, Gua-Val-Hyp-Ile-Pen-Tyr-Dab-Asn-Arg-Dab-Thr-^DDab-Dab-Thr-Ser-Cys-Tyr] ({Val(Nα-amidino)}-[Hyp]I[Pen]Y[Dab]NR[Dab]T[dDab][Dab]TSCY-OH; disulfide 3-14) | 0.125 µg/mL | 0.125 µg/mL | 0.5 µg/mL | <1%
CC[C@H](C)[C@H](NC(=O)[C@@H]1C[C@@H](O)CN1C(=O)[C@@H](NC(=N)N)C(C)C)C(=O)N[C@@H]1C(=O)N[C@@H](Cc2ccc(O)cc2)C(=O)N[C@@H](CCN)C(=O)N[C@@H](CC(N)=O)C(=O)N[C@@H](CCCNC(=N)N)C(=O)N[C@@H](CCN)C(=O)N[C@@H]([C@@H](C)O)C(=O)N[C@H](CCN)C(=O)N[C@@H](CCCN)C(=O)N[C@@H]([C@@H](C)O)C(=O)N[C@@H](CO)C(=O)N[C@H](C(=O)N[C@@H](Cc2ccc(O)cc2)C(=O)O)CSSC1(C)C [Example 130, Gua-Val-Hyp-Ile-Pen-Tyr-Dab-Asn-Arg-Dab-Thr-^DDab-Orn-Thr-Ser-Cys-Tyr] ({Val(Nα-amidino)}-[Hyp]I[Pen]Y[Dab]NR[Dab]T[dDab][Orn]TSCY-OH; disulfide 3-14) | 0.125 µg/mL | 0.125 µg/mL | 0.25 µg/mL | <1%
CC[C@H](C)[C@H](NC(=O)[C@@H]1C[C@@H](O)CN1C(=O)[C@@H](NC(=N)N)C(C)C)C(=O)N[C@@H]1C(=O)N[C@@H](Cc2ccc(O)cc2)C(=O)N[C@@H]([C@@H](C)O)C(=O)N[C@@H](CC(N)=O)C(=O)N[C@@H](CCCNC(=N)N)C(=O)N[C@@H](CCN)C(=O)N[C@@H]([C@@H](C)O)C(=O)N[C@H](CCN)C(=O)N[C@@H](CCCCN)C(=O)N[C@@H](CCN)C(=O)N[C@@H]([C@@H](C)O)C(=O)N[C@H](C(=O)N[C@@H](Cc2ccc(O)cc2)C(=O)O)CSSC1(C)C [Example 131, Gua-Val-Hyp-I-Pen-Tyr-Thr-Asn-Arg-Dab-Thr-^DDab-Lys-Dab-Thr-Cys-Tyr] ({Val(Nα-amidino)}-[Hyp]I[Pen]YTNR[Dab]T[dDab]K[Dab]TCY-OH; disulfide 3-14) | 0.25 µg/mL | 0.125 µg/mL | 0.5 µg/mL | <1%
CC[C@H](C)[C@H](NC(=O)[C@@H]1C[C@@H](O)CN1C(=O)[C@@H](NC(=N)N)C(C)C)C(=O)N[C@@H]1C(=O)N[C@@H](Cc2ccc(O)cc2)C(=O)N[C@@H]([C@@H](C)O)C(=O)N[C@@H](CC(N)=O)C(=O)N[C@@H](CCCNC(=N)N)C(=O)N[C@@H](CCN)C(=O)N[C@@H]([C@@H](C)O)C(=O)N[C@H](CCN)C(=O)N[C@@H](CCN)C(=O)N[C@@H](CCN)C(=O)N[C@@H]([C@@H](C)O)C(=O)N[C@H](C(=O)N[C@@H](Cc2ccc(O)cc2)C(=O)O)CSSC1(C)C [Example 132, Gua-Val-Hyp-Ile-Pen-Tyr-Thr-Asn-Arg-Dab-Thr-^DDab-Dab-Dab-Thr-Cys-Tyr] ({Val(Nα-amidino)}-[Hyp]I[Pen]YTNR[Dab]T[dDab][Dab][Dab]TCY-OH; disulfide 3-14) | 0.25 µg/mL | 0.125 µg/mL | 0.25 µg/mL | <1%
CC[C@H](C)[C@H](NC(=O)[C@@H]1C[C@@H](O)CN1C(=O)[C@@H](NC(=N)N)C(C)C)C(=O)N[C@@H]1C(=O)N[C@@H](Cc2ccc(O)cc2)C(=O)N[C@@H]([C@@H](C)O)C(=O)N[C@@H](CC(N)=O)C(=O)N[C@@H](CCCNC(=N)N)C(=O)N[C@@H](CCN)C(=O)N[C@@H]([C@@H](C)O)C(=O)N[C@H](CCN)C(=O)N[C@@H](CCCN)C(=O)N[C@@H](CCN)C(=O)N[C@@H]([C@@H](C)O)C(=O)N[C@H](C(=O)N[C@@H](Cc2ccc(O)cc2)C(=O)O)CSSC1(C)C [Example 133, Gua-Val-Hyp-Ile-Pen-Tyr-Thr-Asn-Arg-Dab-Thr-^DDab-Orn-Dab-Thr-Cys-Tyr] ({Val(Nα-amidino)}-[Hyp]I[Pen]YTNR[Dab]T[dDab][Orn][Dab]TCY-OH; disulfide 3-14) | 0.25 µg/mL | 0.125 µg/mL | 0.25 µg/mL | <1%

From US20240336654A1, “ANTIMICROBIAL PEPTIDOMIMETICS” (SPEXIS AG, priority 2021, published 2024)
